According to patent US20060160818A1, “Ocular hypotensive agent” (priority 2003, published 2006):
Structures can show the parent of a compound that is named as a salt.

Tested on: ocular tension
Experiment: Ocular tension-reducing activity by administration to anterior chamber
Type: in vivo, rabbit
Conditions: overall conclusion from Examples 1 to 4
Experimental: Test solutions 1 to 3 were prepared as mentioned below. […] Non-white 5 male rabbits were used. Ocular tension was measured under topically anesthetizing the corneal surface with 0.4% oxybuprocaine hydrochloride by using an air impression electronic tonometer (by Japan Alcon Company). The rabbit was fitted in a cylinder, after topically anesthetizing the corneal surface with 0.4% oxybuprocaine hydrochloride, and the test solution 10 μl was injected via cornea in anterior chamber of one eye with an injection needle (30G). To the other eye as a control eye, in the same way as mentioned above, a physiological saline was injected. Ocular tension just before and after injection of the test solution or the physiological saline was measured in accordance with the same method as mentioned above. […] Ocular tension just before and after injection of the test solution and the physiological saline was measured in accordance with the same method as mentioned in Example 1.

| Structure (SMILES) | ocular tension-reducing activity (summary in words) |
| --- | --- |
| O=C1[C@H]2CCCC[C@H]2C(=O)N1CCCCN1CCN(c2nsc3ccccc23)CC1 [perospirone hydrochloride hydrate] | have ocular tension-reducing activity |
| O=C(O)CC(O)(CC(=O)O)C(=O)O.O=C1[C@@H]2[C@@H]3CC[C@@H](C3)[C@@H]2C(=O)N1CCCCN1CCN(c2ncccn2)CC1 [tandospirone citrate] | have ocular tension-reducing activity |
